# pIC50: −log10 of the molar value. Read-outs that look alike come from different tables or passages of the source.
# How the values were obtained:
# [1] = test system: phosphorylation of EGFR (Tyr1068) in NCI-H1975 cell line that harbors the EGFR L858R T790M mutations; test: NCI-H1975 pEGFR AlphaLISA assay; type: cell-based; conditions: 4-5 hours incubation, read-out: Ext pEGFR H1975
# Method in brief: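 NCI-H1975 cells (EGFR L858R/T790M) seeded overnight, then treated with compound for 4-5 h at 37 °C/5% CO2. After lysis, p-EGFR (Tyr1068) quantified by AlphaLISA SureFire Ultra with acceptor then donor beads; IC50 fitted from percent inhibition versus log concentration.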
# EGFR (L858R T790M C797S) = molecular target: T1, EGFR (L858R T790M C797S) (Homo sapiens, UniProt P00533, C797S/L858R/T790M); test: Biochemical EGFR inhibition assay (Caliper mobility shift), EGFR LRTMCS mutant; conditions: inhibitory activity against EGFR LRTMCS mutant; apparent IC50; read-out: Ext Enz LRTMCS
# T1 construct: purchased SignalChem E10-122VG
# Method in brief: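 Apparent IC50s were derived by plotting percent activity against the log of compound concentration. Activity was measured as phosphopeptide electrophoretically separated from substrate, after reactions at room temperature reached 10% to 20% phosphorylation and were halted with 35 mM EDTA.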
# [2] = Homo sapiens, NCI-H1975, inhibition of phosphorylation of mutant EGFR in NCI-H1975 cells
# [3] = inhibition of phosphorylation of mutant EGFR in NCI-H1975 cells
# T1 sequence (P00533 25-1210 T790M/C797S/L858R): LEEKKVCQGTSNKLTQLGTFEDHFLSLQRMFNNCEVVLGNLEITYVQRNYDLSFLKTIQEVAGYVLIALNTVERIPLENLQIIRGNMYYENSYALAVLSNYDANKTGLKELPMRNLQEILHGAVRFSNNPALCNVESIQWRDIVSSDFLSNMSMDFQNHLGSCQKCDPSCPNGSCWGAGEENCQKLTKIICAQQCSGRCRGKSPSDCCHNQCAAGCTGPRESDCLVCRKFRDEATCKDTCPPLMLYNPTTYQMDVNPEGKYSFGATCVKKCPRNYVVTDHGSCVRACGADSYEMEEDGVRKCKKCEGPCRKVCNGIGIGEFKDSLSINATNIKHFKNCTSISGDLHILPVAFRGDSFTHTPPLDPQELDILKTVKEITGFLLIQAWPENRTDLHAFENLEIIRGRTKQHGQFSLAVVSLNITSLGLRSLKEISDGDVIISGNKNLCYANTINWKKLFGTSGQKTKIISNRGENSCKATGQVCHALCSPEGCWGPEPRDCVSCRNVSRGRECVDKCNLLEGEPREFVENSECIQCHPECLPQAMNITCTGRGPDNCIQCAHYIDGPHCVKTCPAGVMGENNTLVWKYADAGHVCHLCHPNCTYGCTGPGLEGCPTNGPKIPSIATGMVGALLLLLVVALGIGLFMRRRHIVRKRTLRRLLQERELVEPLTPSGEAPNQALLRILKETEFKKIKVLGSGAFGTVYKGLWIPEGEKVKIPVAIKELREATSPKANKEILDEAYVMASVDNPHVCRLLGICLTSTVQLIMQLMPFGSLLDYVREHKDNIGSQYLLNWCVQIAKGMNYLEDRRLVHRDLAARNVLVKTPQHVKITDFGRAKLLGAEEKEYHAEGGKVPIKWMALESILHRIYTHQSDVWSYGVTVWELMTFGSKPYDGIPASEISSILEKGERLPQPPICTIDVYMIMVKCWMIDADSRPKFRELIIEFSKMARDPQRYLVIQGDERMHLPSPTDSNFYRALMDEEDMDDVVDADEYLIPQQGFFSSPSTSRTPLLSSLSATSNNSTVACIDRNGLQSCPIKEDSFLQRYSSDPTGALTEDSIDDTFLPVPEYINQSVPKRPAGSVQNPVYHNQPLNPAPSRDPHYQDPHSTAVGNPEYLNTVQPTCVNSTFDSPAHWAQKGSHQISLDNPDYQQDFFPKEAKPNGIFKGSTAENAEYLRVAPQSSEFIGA
SMILES,"pIC50 [1, 2]",pIC50 (EGFR (L858R T790M C797S)),"pIC50 [1, 3]"
"CCS(=O)(=O)C[C@H]1CN(c2cnc(C(C)C)c3cc(Nc4ccnc(N5CC[C@@](C)(O)C(F)(F)C5)n4)ncc23)[C@@H]1C (single isomer, unassigned) [Compound 231, (4R)-1-[4-({8-[(2R,3S)-3-[(ethanesulfonyl)methyl]-2-methylazetidin-1-yl]-5-(propan-2-yl)-2,6-naphthyridin-3-yl}amino)pyrimidin-2-yl]-3,3-difluoro-4-methylpiperidin-4-ol or (4S)-1-[4-({8-[(2R,3S)-3-[(ethanesulfonyl)methyl]-2-methylazetidin-1-yl]-5-(propan-2-yl)-2,6-naphthyridin-3-yl}amino)pyrimidin-2-yl]-3,3-difluoro-4-methylpiperidin-4-ol]",≥ 8.00,≥ 7.82,
"CO[C@@H]1[C@H](O)CN(c2nccc(Nc3cc4c(C(C)C)ccc(N5C[C@H](CS(C)(=O)=O)[C@H]5C)c4cn3)n2)CC1(F)F (single isomer, unassigned) [Compound 232, (3S,4S)-5,5-difluoro-1-(4-(5-isopropyl-8-((2R,3S)-2-methyl-3-(methylsulfonylmethyl)azetidin-1-yl)isoquinolin-3-ylamino)pyrimidin-2-yl)-4-methoxypiperidin-3-ol or (3R,4R)-5,5-difluoro-1-(4-(5-isopropyl-8-((2R,3S)-2-methyl-3-(methylsulfonylmethyl)azetidin-1-yl)isoquinolin-3-ylamino)pyrimidin-2-yl)-4-methoxypiperidin-3-ol]",≥ 8.00,7.00 to 7.52,
"CO[C@@H]1[C@H](O)CN(c2nccc(Nc3cc4c(C(C)C)ncc(N5C[C@H](CS(C)(=O)=O)[C@H]5C)c4cn3)n2)CC1(F)F (single isomer, unassigned) [Compound 233, (3R,4R)-5,5-difluoro-1-[4-({8-[(2R,3S)-3-(methanesulfonylmethyl)-2-methylazetidin-1-yl]-5-(propan-2-yl)-2,6-naphthyridin-3-yl}amino)pyrimidin-2-yl]-4-methoxypiperidin-3-ol or (3S,4S)-5,5-difluoro-1-[4-({8-[(2R,3S)-3-(methanesulfonylmethyl)-2-methylazetidin-1-yl]-5-(propan-2-yl)-2,6-naphthyridin-3-yl}amino)pyrimidin-2-yl]-4-methoxypiperidin-3-ol]",≥ 8.00,≥ 7.82,
"CO[C@H]1[C@@H](O)CN(c2nccc(Nc3cc4c(C(C)C)ncc(N5C[C@H](CS(C)(=O)=O)[C@H]5C)c4cn3)n2)CC1(F)F (single isomer, unassigned) [Compound 234, (3S,4S)-5,5-difluoro-1-[4-({8-[(2R,3S)-3-(methanesulfonylmethyl)-2-methylazetidin-1-yl]-5-(propan-2-yl)-2,6-naphthyridin-3-yl}amino)pyrimidin-2-yl]-4-methoxypiperidin-3-ol or (3R,4R)-5,5-difluoro-1-[4-({8-[(2R,3S)-3-(methanesulfonylmethyl)-2-methylazetidin-1-yl]-5-(propan-2-yl)-2,6-naphthyridin-3-yl}amino)pyrimidin-2-yl]-4-methoxypiperidin-3-ol]",7.52 to 7.70,7.52 to 7.70,
"CO[C@@H]1[C@H](O)CN(c2nccc(Nc3cc4c(C(C)C)cnc(N5C[C@H](CS(C)(=O)=O)[C@H]5C)c4cn3)n2)CC1(F)F (single isomer, unassigned) [Compound 235, (3R,4R)-5,5-difluoro-1-[4-({8-[(2R,3S)-3-(methanesulfonylmethyl)-2-methylazetidin-1-yl]-5-(propan-2-yl)-2,7-naphthyridin-3-yl}amino)pyrimidin-2-yl]-4-methoxypiperidin-3-ol or (3S,4S)-5,5-difluoro-1-[4-({8-[(2R,3S)-3-(methanesulfonylmethyl)-2-methylazetidin-1-yl]-5-(propan-2-yl)-2,7-naphthyridin-3-yl}amino)pyrimidin-2-yl]-4-methoxypiperidin-3-ol]",≥ 8.00,≥ 7.82,
"CO[C@@H]1[C@H](O)CN(c2nccc(Nc3cc4c(C(C)C)cnc(N5C[C@H](CS(C)(=O)=O)[C@H]5C)c4cn3)n2)CC1(F)F (single isomer, unassigned) [Compound 236, (3S,4S)-5,5-difluoro-1-[4-({8-[(2R,3S)-3-(methanesulfonylmethyl)-2-methylazetidin-1-yl]-5-(propan-2-yl)-2,7-naphthyridin-3-yl}amino)pyrimidin-2-yl]-4-methoxypiperidin-3-ol or (3R,4R)-5,5-difluoro-1-[4-({8-[(2R,3S)-3-(methanesulfonylmethyl)-2-methylazetidin-1-yl]-5-(propan-2-yl)-2,7-naphthyridin-3-yl}amino)pyrimidin-2-yl]-4-methoxypiperidin-3-ol]",,≥ 7.82,7.70 to 8.00
"CC(C)c1cnc(N2CC(CS(=O)(=O)C(F)(F)F)C2)c2cnc(Nc3ccnc(N4CC[C@@H](O)[C@@](C)(F)C4)n3)cc12 (single isomer, unassigned) [Compound 237]",7.52 to 7.70,7.00 to 7.52,
"CC(C)c1ccc(N2CC(CS(=O)(=O)C3CN(C)C3)C2)c2cnc(Nc3ccnc(N4CC[C@@H](O)[C@@](C)(F)C4)n3)cc12 (single isomer, unassigned) [Compound 238]",≥ 8.00,≥ 7.82,
"CC(C)c1ccc(N2CC(CS(=O)(=O)CCN(C)C)C2)c2cnc(Nc3ccnc(N4CC[C@@H](O)[C@@](C)(F)C4)n3)cc12 (single isomer, unassigned) [Compound 239]",≥ 8.00,≥ 7.82,
"CC(C)c1ccc(N2C[C@H](CS(C)(=O)=O)[C@H]2C)c2cnc(Nc3ccnc(N4CC[C@@H](OCCO)[C@@](C)(F)C4)n3)cc12 (single isomer, unassigned) [Compound 242]",≥ 8.00,≥ 7.82,
"COCCO[C@@H]1CCN(c2nccc(Nc3cc4c(C(C)C)ccc(N5C[C@H](CS(C)(=O)=O)[C@H]5C)c4cn3)n2)C[C@@H]1F (single isomer, unassigned) [Compound 245]",≥ 8.00,≥ 7.82,
"COCCO[C@H]1CCN(c2nccc(Nc3cc4c(C(C)C)ccc(N5C[C@H](CS(C)(=O)=O)[C@H]5C)c4cn3)n2)C[C@H]1F (single isomer, unassigned) [Compound 246]",≥ 8.00,≥ 7.82,

# Other lines, results leading:
"pIC50 [1, 2]",pIC50 (EGFR (L858R T790M C797S)),"pIC50 [1, 3]",SMILES
≥ 8.00,≥ 7.82,,"CC(C)c1ccc(N2C[C@H](CS(C)(=O)=O)[C@H]2C)c2cnc(Nc3ccnc(N4CC[C@@H](OC[C@H](C)O)[C@@H](F)C4)n3)cc12 (single isomer, unassigned) [Compound 247, (2S)-1-{[(3S,4R)-3-fluoro-1-[4-({8-[(2R,3S)-3-(methanesulfonylmethyl)-2-methylazetidin-1-yl]-5-(propan-2-yl)isoquinolin-3-yl}amino)pyrimidin-2-yl]piperidin-4-yl]oxy}propan-2-ol or (2R)-1-{[(3S,4R)-3-fluoro-1-[4-({8-[(2R,3S)-3-(methanesulfonylmethyl)-2-methylazetidin-1-yl]-5-(propan-2-yl)isoquinolin-3-yl}amino)pyrimidin-2-yl]piperidin-4-yl]oxy}propan-2-ol]"
,≥ 7.82,≥ 8.00,"CC(C)c1ccc(N2C[C@H](CS(C)(=O)=O)[C@H]2C)c2cnc(Nc3ccnc(N4CC[C@@H](OC[C@H](C)O)[C@@H](F)C4)n3)cc12 (single isomer, unassigned) [Compound 248, (2R)-1-{[(3S,4R)-3-fluoro-1-[4-({8-[(2R,3S)-3-(methanesulfonylmethyl)-2-methylazetidin-1-yl]-5-(propan-2-yl)isoquinolin-3-yl}amino)pyrimidin-2-yl]piperidin-4-yl]oxy}propan-2-ol or (2S)-1-{[(3S,4R)-3-fluoro-1-[4-({8-[(2R,3S)-3-(methanesulfonylmethyl)-2-methylazetidin-1-yl]-5-(propan-2-yl)isoquinolin-3-yl}amino)pyrimidin-2-yl]piperidin-4-yl]oxy}propan-2-ol]"
≥ 8.00,7.70 to 7.82,,"CC(C)c1ccc(N2C[C@H](CS(C)(=O)=O)[C@H]2C)c2cnc(Nc3ccnc(N4CC[C@@H](OCCO)C(F)(F)C4)n3)cc12 (single isomer, unassigned) [Compound 251]"
≥ 8.00,7.52 to 7.70,,"CC(C)c1ccc(N2C[C@H](CS(C)(=O)=O)[C@H]2C)c2cnc(Nc3ccnc(N4CC[C@H](OCCO)C(F)(F)C4)n3)cc12 (single isomer, unassigned) [Compound 252]"
≥ 8.00,≥ 7.82,,"CC(C)c1cnc(N2C[C@H](CS(C)(=O)=O)[C@H]2C)c2cnc(Nc3ccnc(N4CC[C@H]5COC[C@H]54)n3)cc12 (single isomer, unassigned) [Compound 266, N-{2-[(3aR,6aS)-hexahydro-1H-furo[3,4-b]pyrrol-1-yl]pyrimidin-4-yl}-8-[(2R,3S)-3-(methanesulfonylmethyl)-2-methylazetidin-1-yl]-5-(propan-2-yl)-2,7-naphthyridin-3-amine or N-{2-[(3aS,6aR)-hexahydro-1H-furo[3,4-b]pyrrol-1-yl]pyrimidin-4-yl}-8-[(2R,3S)-3-(methanesulfonylmethyl)-2-methylazetidin-1-yl]-5-(propan-2-yl)-2,7-naphthyridin-3-amine]"

# — US12172983B2, “EGFR inhibitors” (Blueprint Medicines Corporation, priority 2019, dated 2024)
